Measured values as given in patent publication US6864244B2, “Anhydrous crystalline 1-[4(S)-azido-2(S),3(R)-dihydroxy-4-(hydroxymethyl)-1(R)-cyclopentyl]cytosine hemisulfate as useful as an antiviral agent” (Roche Palo Alto LLC, priority 2002, dated 2005).
Where two headings read alike, the source gives them in different places. Blank lines part the entries; values can stand above or below the compound they belong to.

Tests used:
Type in all cases: physicochemical
[1] = Differential scanning calorimetry (DSC), thermal properties
[2] = Accelerating rate calorimetric (ARC) determination (adiabatic calorimetry conditions)
[3] = Hygroscopicity at 93% relative humidity (weight gain, HPLC assay)
Experimental: (§1) A small amount of the polymorphic Form C crystal (about 10 mg) was weighed into a weighing bottle and placed in a chamber with controlled relative humidity for 4 weeks and the percentage of water absorbed was calculated form the weight gain. The sample was also assayed by HPLC against an external standard on a Waters 2690 HPLC at 276 nm with a Zorbax SB-Phenyl column. The mobile phase is a gradient run at 1 mL/min consisting of acetonitrile/water with 10 mM heptane sulfonic acid, 0.1% phosphoric acid in both. The gradient is run as 10% ACN to 100% in 30 min. The data was processed using Waters Millennium software version 3.2. The thermal stability also was determined at 60° C. and at 40° C./75% relative humidity. The purity of the sample was determined by assaying weighed aliquots by HPLC against an external standard.

[4] = Thermal stability on storage at 60° C. and at 40° C./75% relative humidity (HPLC assay against external standard); details: for ASSAY: HPLC
Experimental: as §1

[5] = Polymorph transformation in the presence of moisture

exothermic decomposition onset temperature [1]: approximately 210 °C | exothermic decomposition onset temperature ([1]; listed as Form C polymorph of Ia): 210 °C | Adiabatic Temperature Rise [2]: 265 °C | corrected exothermic decomposition onset temperature [2]: 152 °C | enthalpy of decomposition exotherm [2]: -132 cal/g | APPEARANCE ([3]; 93% RH, 4 weeks): white powder | POLYMORPH ([3]; 93% RH, 4 weeks): Form C | WEIGHT GAIN ([3]; 93% RH, 4 weeks): 0% | ASSAY ([3]; 93% RH, 4 weeks, HPLC): 99.9 | hygroscopicity ([3]; 93% relative humidity, 4 weeks): not hygroscopic | APPEARANCE ([4]; 40° C./75% RH, 1 week): white powder | POLYMORPH ([4]; 40° C./75% RH, 1 week): Form C | ASSAY ([4]; 40° C./75% RH, 1 week): 99.9 | APPEARANCE ([4]; 40° C./75% RH, 2 weeks): white powder | ASSAY ([4]; 40° C./75% RH, 2 weeks): 99.9 | APPEARANCE ([4]; 40° C./75% RH, 4 weeks): white powder | POLYMORPH ([4]; 40° C./75% RH, 4 weeks): Form C | ASSAY ([4]; 40° C./75% RH, 4 weeks): 99.9 | APPEARANCE ([4]; 60° C., 1 week): white powder | POLYMORPH ([4]; 60° C., 1 week): Form C | ASSAY ([4]; 60° C., 1 week): 99.9 | APPEARANCE ([4]; 60° C., 2 weeks): white powder | ASSAY ([4]; 60° C., 2 weeks): 99.9 | APPEARANCE ([4]; 60° C., 4 weeks): white powder | POLYMORPH ([4]; 60° C., 4 weeks): Form C | ASSAY ([4]; 60° C., 4 weeks): 99.9 | thermal stability ([4]; at 40 and 60° C. over the duration of the assay): thermal stable
SMILES: [N-]=[N+]=N[C@]1(CO)O[C@@H](n2ccc(N)nc2=O)[C@H](O)[C@@H]1O [Form C of Ia]

exothermic decomposition onset temperature [1]: approximately 185 °C | exothermic decomposition onset temperature ([1]; listed as Form A polymorph of Ia): 185 °C | polymorphic transformation [5]: transformed into Form C
SMILES: [N-]=[N+]=N[C@]1(CO)O[C@@H](n2ccc(N)nc2=O)[C@H](O)[C@@H]1O [Form A of Ia]

hygroscopicity relative to the free base [3]: less hygroscopic than the free base | weight gain on storage ([3]; stored at high relative humidity): No weight gain
SMILES: [N-]=[N+]=N[C@]1(CO)O[C@@H](n2ccc(N)nc2=O)[C@H](O)[C@@H]1O [Ia]

exothermic decomposition onset temperature [1]: approximately 189 °C | exothermic decomposition onset temperature ([1]; listed as Form B polymorph of Ia): 189 °C | polymorphic transformation [5]: transformed into Form C
SMILES: [N-]=[N+]=N[C@]1(CO)O[C@@H](n2ccc(N)nc2=O)[C@H](O)[C@@H]1O [Form B of Ia]
